Data taken from BindingDB's records for patent US20240368150 (Hoffmann-La Roche, 2024).

Tests used:
[1] = target: Diacylglycerol kinase alpha (Homo sapiens, UniProt P23743); assay: In Vitro DGK Inhibition Assays
Experimental: DGK α and ζ kinase use ATP to phosphorylate the substrate 1,2-dilauroyl-sn-glycerol (DLG, incorporated in the liposomes). ATP is converted to ADP as a result of this enzymatic reaction. After the kinase reaction, an ATP-depletion reagent is added to terminate the kinase reaction and deplete any remaining ATP, leaving only ADP. Second, a detection reagent is added to simultaneously convert ADP to ATP and allow the newly synthesized ATP to be converted to light using a coupled luciferase/luciferin reaction. A concentrated liposome solution was prepared in assay buffer without DTT and BSA: 2 mM of DLG in 21 mM of total liposome (2 mM DLG/8 mM PS/11 mM PC). […] The reactions were started by addition of DGK α and ζ kinases at 4 nM and 2 nM final concentrations, respectively. After 1 hour reaction, the amount of ADP formed was detected with the ADP-Glo kinase assay (Promega) according to the manufacturer instructions. Compounds were added in 11-points dose response, starting at […], 1:3 dilutions, with a final DMSO concentration of 2%. The multidrop combi was used as a liquid handler and luminescence was read with 0.5 s by the envision reader (PE).

[2] = target: Diacylglycerol kinase zeta (Homo sapiens, UniProt Q13574)
Sequence of Diacylglycerol kinase zeta (Q13574 as listed by the source): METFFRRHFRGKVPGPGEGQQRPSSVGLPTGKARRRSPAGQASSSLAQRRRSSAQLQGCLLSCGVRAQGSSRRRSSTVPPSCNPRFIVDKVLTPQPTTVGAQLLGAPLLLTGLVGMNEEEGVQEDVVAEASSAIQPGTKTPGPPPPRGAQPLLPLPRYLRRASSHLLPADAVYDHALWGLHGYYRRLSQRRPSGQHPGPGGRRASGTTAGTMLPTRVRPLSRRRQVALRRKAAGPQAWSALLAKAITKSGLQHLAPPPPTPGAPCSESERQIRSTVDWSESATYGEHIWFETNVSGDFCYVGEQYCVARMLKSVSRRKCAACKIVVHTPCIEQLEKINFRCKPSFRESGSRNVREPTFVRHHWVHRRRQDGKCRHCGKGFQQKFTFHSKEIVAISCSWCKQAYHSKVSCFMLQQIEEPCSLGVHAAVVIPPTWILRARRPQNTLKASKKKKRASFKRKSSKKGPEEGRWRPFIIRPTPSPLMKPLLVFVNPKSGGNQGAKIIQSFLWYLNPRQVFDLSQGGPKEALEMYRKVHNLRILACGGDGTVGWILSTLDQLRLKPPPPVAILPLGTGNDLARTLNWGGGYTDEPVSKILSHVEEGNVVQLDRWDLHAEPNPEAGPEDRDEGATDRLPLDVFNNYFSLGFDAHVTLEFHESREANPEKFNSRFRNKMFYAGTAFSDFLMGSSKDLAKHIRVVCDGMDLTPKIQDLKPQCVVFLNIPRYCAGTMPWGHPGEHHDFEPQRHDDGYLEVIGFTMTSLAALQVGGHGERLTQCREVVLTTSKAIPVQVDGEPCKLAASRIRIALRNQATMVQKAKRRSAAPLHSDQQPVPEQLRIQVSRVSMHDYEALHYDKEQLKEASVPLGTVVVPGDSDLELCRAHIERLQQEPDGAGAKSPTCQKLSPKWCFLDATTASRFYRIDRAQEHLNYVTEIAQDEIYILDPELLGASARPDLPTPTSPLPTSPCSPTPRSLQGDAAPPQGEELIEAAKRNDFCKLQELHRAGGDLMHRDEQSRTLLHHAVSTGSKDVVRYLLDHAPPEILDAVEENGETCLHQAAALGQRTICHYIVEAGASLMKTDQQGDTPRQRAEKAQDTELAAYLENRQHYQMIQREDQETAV

Sequence of Diacylglycerol kinase alpha (P23743 whole entry): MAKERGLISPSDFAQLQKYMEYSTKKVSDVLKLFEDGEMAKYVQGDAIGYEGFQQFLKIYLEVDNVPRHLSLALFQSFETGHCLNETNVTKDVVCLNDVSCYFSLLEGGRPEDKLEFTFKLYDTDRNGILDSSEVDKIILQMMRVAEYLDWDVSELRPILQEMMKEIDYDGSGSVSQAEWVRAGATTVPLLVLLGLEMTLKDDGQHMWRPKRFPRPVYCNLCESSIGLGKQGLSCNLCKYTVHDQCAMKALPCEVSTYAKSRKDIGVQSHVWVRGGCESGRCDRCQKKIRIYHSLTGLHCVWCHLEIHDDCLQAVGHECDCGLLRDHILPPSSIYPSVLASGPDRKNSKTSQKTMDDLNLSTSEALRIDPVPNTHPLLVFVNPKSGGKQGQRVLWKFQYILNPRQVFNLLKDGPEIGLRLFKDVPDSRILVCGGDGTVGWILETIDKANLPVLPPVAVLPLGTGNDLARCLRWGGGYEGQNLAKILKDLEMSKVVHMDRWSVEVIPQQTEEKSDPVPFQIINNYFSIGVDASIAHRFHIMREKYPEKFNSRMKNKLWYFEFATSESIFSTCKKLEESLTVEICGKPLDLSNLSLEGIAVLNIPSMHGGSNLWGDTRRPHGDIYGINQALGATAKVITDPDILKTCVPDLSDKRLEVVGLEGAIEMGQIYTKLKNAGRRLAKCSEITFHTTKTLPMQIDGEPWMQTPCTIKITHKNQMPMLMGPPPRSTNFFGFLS

IC50 [1] [µM]	IC50 [2] [µM]	SMILES
3.06	3.67	CN(C)C(=O)c1nnc(-c2cc3c(cc2F)S(=O)(=O)C[C@H](N)C(=O)N3Cc2ccc(Cl)cc2)o1 [US20240368150, Example 87]
4.06	1.44	COC1(c2nnc(-c3ccc4c(c3)N(Cc3ccc(Cl)cc3)C(=O)[C@@H](N)CS4(=O)=O)o2)CCC(F)(F)CC1 [US20240368150, Example 378]
